From US6437184B1, “Oxime compounds, their use, and intermediates for their production” (Sumitomo Chemical Company, Limited, priority 1997, dated 2002) come the findings set out here.

Broadly, the mortality is the share of the test organisms that died.

The first assay deals with Plutella xylostella. Briefly: Insecticidal test against Plutella xylostella. Type of assay: in vivo. As to conditions: 96 h, 50 ppm water dilution sprayed over potted cabbages, 25 ml per pot, third-instar larvae, after 4 days, read-out: mortality. How it is done:
To a water dilution (50 ppm) of a test compound formulation obtained according to Formulation Example 1 was added a spreading agent (New RINOU available from Nihon Noyaku K.K.) at a dilution ratio of 3000-fold. The dilution was sprayed over potted cabbages at the four to five leaf stage at a volume of 25 ml per pot. After the treated plants were air dried, ten third-instar larvae of Plutella xylostella were set free on each pot. After 4 days, the mortality was determined.
Regarding `ClC(Cl)=CCOc1cc(Cl)c(OCCCCON=C2CCOCC2)c(Cl)c1` [(573), tetrahydro-4H-pyran-4-one O-(4-(2,6-dichloro-4-(3,3-dichloro-2-propenyloxy)phenoxy)butyl)oxime], the mortality at 50 µg/mL is not below 80%.

Turning to `CCCCC(=NO)c1cccc(OCCCOc2c(Cl)cc(OCC=C(Cl)Cl)cc2Cl)c1` [(336), 3′-(3-(2,6-dichloro-4-(3,3-dichloro-2-propenyloxy)phenoxy)propyloxy)valerophenone oxime], the mortality at 50 µg/mL was not below 80%.

Regarding `FC(F)(F)c1ccc(C=NOCCCOc2c(Cl)cc(OCC=C(Cl)Cl)cc2Cl)cc1` [(524), 4-(trifluoromethyl)benzaldehyde O-(3-(2,6-dichloro-4-(3,3-dichloro-2-propenyloxy)phenoxy)propyl)oxime], the mortality at 50 µg/mL is not below 80%.

Consider `ClC(Cl)=CCON=Cc1ccc(OCCCCOc2c(Cl)cc(OCC=C(Cl)Cl)cc2Cl)cc1` [(285), 4-(4-(2,6-dichloro-4-(3,3-dichloro-2-propenyloxy)phenoxy)butyloxy)benzaldehyde O-(3,3-dichloro-2-propenyl)oxime], for which the mortality at 50 µg/mL was not below 80%.

For `CC(=NO)c1ccc(OCCCCCOc2c(Cl)cc(OCC=C(Cl)Cl)cc2Cl)cc1` [(334), 4′-(5-(2,6-dichloro-4-(3,3-dichloro-2-propenyloxy)phenoxy)-pentyloxy)acetophenone oxime], the mortality at 50 µg/mL was not below 80%.

Another assay relates to Cydia pomonella. Put plainly: Insecticidal test against Cydia pomonella. In kind it is in vivo. As to conditions: 168 h, 100 ppm water dilution, 0.2 ml on surface of artificial diet, eggs just before hatching, after 7 days. How it is done: A water dilution (100 ppm) of a test compound formulation obtained according to Formulation Example 1 was added dropwise at a volume of 0.2 ml and spread over the surface of an artificial diet having a weight of 3 g, which had been prepared in a 30 ml polyethylene cup. After air drying, placed in the cup was a piece of wax paper (about 2.5 cm square) having about 20 eggs which had been laid by Cydia pomonella and were just before hatching. Four pieces of such wax paper were used for each treatment. After 7 days, the mortality of the larvae was determined.
The compound `FC(F)(F)c1ccc(C=NOCCOc2c(Cl)cc(OCC=C(Cl)Cl)cc2Cl)cc1` [(550), 4-(trifluoromethyl)benzaldehyde O-(2-(2,6-dichloro-4-(3,3-dichloro-2-propenyloxy)phenoxy)ethyl)oxime] showed a mortality at 100 µg/mL not below 80%.

In turn, `CC(=NOCCOc1c(Cl)cc(OCC=C(Cl)Cl)cc1Cl)c1ccc(C(F)(F)F)cc1` [(549), 4′-(trifluoromethyl)acetophenone O-(2-(2,6-dichloro-4-(3,3-dichloro-2-propenyloxy)phenoxy)ethyl)oxime] registered a mortality at 100 µg/mL not below 80%.

As for `CCCON=Cc1cccc(COc2c(Cl)cc(OCC=C(Cl)Cl)cc2Cl)c1` [(379), 3-((2,6-dichloro-4-(3,3-dichloro-2-propenyloxy)phenoxy)methyl)benzaldehyde O-propyloxime], the mortality at 100 µg/mL is not below 80%.

Regarding `CC(C)Oc1ccc(C=NOCCCCOc2c(Cl)cc(OCC=C(Cl)Cl)cc2Cl)cc1` [(579), 4-isopropoxybenzaldehyde O-(4-(2,6-dichloro-4-(3,3-dichloro-2-propenyloxy)phenoxy)butyl)oxime], the mortality at 100 µg/mL was not below 80%.

As for `ClC(Cl)=CCOc1cc(Cl)c(OCCCCCCON=C2CCSCC2)c(Cl)c1` [(575), tetrahydrothiopyran-4-one O-(6-(2,6-dichloro-4-(3,3-dichloro-2-propenyloxy)phenoxy)hexyl)oxime], the mortality at 100 µg/mL is not below 80%.

`ClC(Cl)=CCOc1cc(Cl)c(OCc2cccc(C=NOCc3ccccc3)c2)c(Cl)c1` [(324), 3-(2,6-dichloro-4-(3,3-dichloro-2-propenyloxy)phenoxymethyl)benzaldehyde O-benzyloxime] had a mortality at 100 µg/mL not below 80%.

`CC(=NOC(C)(C)C)c1ccc(OCCCOc2c(Cl)cc(OCC=C(Cl)Cl)cc2Cl)cc1` [(294), 4′-(3-(2,6-dichloro-4-(3,3-dichloro-2-propenyloxy)phenoxy)propyloxy)acetophenone O-tert-butyloxime]: the mortality at 100 µg/mL was not below 80%.

On to `CC(C)CON=Cc1cccc(COc2c(Cl)cc(OCC=C(Cl)Cl)cc2Cl)c1` [(381), 3-((2,6-dichloro-4-(3,3-dichloro-2-propenyloxy)phenoxy)methyl)benzaldehyde O-iso-butyloxime], for which the mortality at 100 µg/mL was not below 80%.

`CC(C)CON=Cc1ccc(CCCOc2c(Cl)cc(OCC=C(Cl)Cl)cc2Cl)cc1` [(382), 4-(3-(2,6-dichloro-4-(3,3-dichloro-2-propenyloxy)phenoxy)propyl)benzaldehyde O-iso-butyloxime] displayed a mortality at 100 µg/mL not below 80%.

`CON=Cc1ccc(CCCOc2c(Cl)cc(OCC=C(Cl)Cl)cc2Cl)cc1` [(365), 4-(3-(2,6-dichloro-4-(3,3-dichloro-2-propenyloxy)phenoxy)propyl)benzaldehyde O-methyloxime] showed a mortality at 100 µg/mL not below 80%.

In turn, `CCc1cc(OCC=C(Cl)Cl)cc(CC)c1OCCCCOCC=NOCC=C(Cl)Cl` [(10), 4-(2,6-diethyl-4-(3,3-dichloro-2-propenyloxy)phenoxy)butyloxyacetaldehyde O-(3,3-dichloro-2-propenyl)oxime] displayed a mortality at 100 µg/mL not below 80%.

`CC(=NOCC=C(Br)Br)c1ccc(OCCCCOc2c(Cl)cc(OCC=C(Cl)Cl)cc2Cl)cc1` [(300), 4′-(4-(2,6-dichloro-4-(3,3-dichloro-2-propenyloxy)phenoxy)butyloxy)acetophenone O-(3,3-dibromo-2-propenyl)oxime] showed a mortality at 100 µg/mL not below 80%.

`CCON=C(C)c1ccc(OCCCCOc2c(Cl)cc(OCC=C(Cl)Cl)cc2Cl)cc1` [(297), 4′-(4-(2,6-dichloro-4-(3,3-dichloro-2-propenyloxy)phenoxy)butyloxy)acetophenone O-ethyloxime] returned a mortality at 100 µg/mL not below 80%.

The compound `ClC(Cl)=CCOc1cc(Cl)c(OCCCC=NOCC=C(Br)Br)c(Cl)c1` [(25), 4-(2,6-dichloro-4-(3,3-dichloro-2-propenyloxy)phenoxy)butanal O-(3,3-dibromo-2-propenyl)oxime] displayed a mortality at 100 µg/mL not below 80%.

Consider `ClC(Cl)=CCOc1cc(Cl)c(OCCCCCON=C2CCSCC2)c(Cl)c1` [(572), tetrahydrothiopyran-4-one O-(5-(2,6-dichloro-4-(3,3-dichloro-2-propenyloxy)phenoxy)pentyl)oxime], for which the mortality at 100 µg/mL was not below 80%.

`O=[N+]([O-])c1ccc(C=NOCCCCOc2c(Cl)cc(OCC=C(Cl)Cl)cc2Cl)cc1` [(578), 4-nitrobenzaldehyde O-(4-(2,6-dichloro-4-(3,3-dichloro-2-propenyloxy)phenoxy)butyl)oxime]: the mortality at 100 µg/mL was not below 80%.

`ClC(Cl)=CCOc1cc(Cl)c(OCCCC=NOCc2ccccc2)c(Cl)c1` [(27), 4-(2,6-dichloro-4-(3,3-dichloro-2-propenyloxy)phenoxy)butanal O-benzyloxime] registered a mortality at 100 µg/mL not below 80%.

`CCON=Cc1cccc(COc2c(Cl)cc(OCC=C(Cl)Cl)cc2Cl)c1` [(378), 3-((2,6-dichloro-4-(3,3-dichloro-2-propenyloxy)phenoxy)methyl)benzaldehyde O-ethyloxime] showed a mortality at 100 µg/mL not below 80%.

In turn, `ClC(Cl)=CCON=Cc1cccc(COc2c(Cl)cc(OCC=C(Cl)Cl)cc2Cl)c1` [(323), 3-(2,6-dichloro-4-(3,3-dichloro-2-propenyloxy)phenoxymethyl)benzaldehyde O-(3,3-dichloro-2-propenyl)oxime] had a mortality at 100 µg/mL not below 80%.

The next assay has as its system Musca domestica. Put plainly: Insecticidal test against Musca domestica. Type of assay: in vivo. As to conditions: 24 h, 500 ppm water dilution, 0.7 ml on filter paper with sucrose, female adults, after 1 day, read-out: mortality. How it is done: In the bottom of a polyethylene cup having a diameter of 5.5 cm was placed a piece of filter paper having the same size. A 200-fold water dilution (500 ppm) of a test compound formulation obtained according to Formulation Example 1 was added dropwise at a volume of 0.7 ml on the filter paper, and about 30 mg of sucrose as a diet was uniformly placed thereon. Ten female adults of houseflies (Musca domestica) were set free in the cup, and the cup was kept covered. After 1 day, the survival of the adults was determined to determine the mortality.
For `CC(=NOCCCCOc1c(Cl)cc(OCC=C(Cl)Cl)cc1Cl)c1ccccn1` [(689), methyl 2-pyridyl ketone O-(4-(2,6-dichloro-4-(3,3-dichloro-2-propenyloxy)phenoxy)butyl)oxime], the mortality at 500 µg/mL was not below 80%.

`CCON=C(C)COCCCCCOc1c(Cl)cc(OCC=C(Cl)Cl)cc1Cl` [(176), 5-(2,6-dichloro-4-(3,3-dichloro-2-propenyloxy)phenoxy)pentyloxyacetone O-ethyloxime]: the mortality at 500 µg/mL was not below 80%.

Turning to `CON=CCOCCCCOc1c(Cl)cc(OCC=C(Cl)Cl)cc1Cl` [(7), 4-(2,6-dichloro-4-(3,3-dichloro-2-propenyloxy)phenoxy)butyloxyacetaldehyde O-methyloxime], the mortality at 500 µg/mL was not below 80%.

On to `C=CCON=CCOCCCCOc1c(Cl)cc(OCC=C(Cl)Cl)cc1Cl` [(4), 4-(2,6-dichloro-4-(3,3-dichloro-2-propenyloxy)phenoxy)butyloxyacetaldehyde O-(2-propenyl)oxime], for which the mortality at 500 µg/mL is not below 80%.

On to `CON=Cc1ccc(OCCCOc2c(Cl)cc(OCC=C(Cl)Cl)cc2Cl)cc1` [(305), 4-(3-(2,6-dichloro-4-(3,3-dichloro-2-propenyloxy)phenoxy)propyloxy)benzaldehyde O-methyloxime], for which the mortality at 500 µg/mL is not below 80%.

Take `CCON=CCOCCCCCOc1c(Cl)cc(OCC=C(Cl)Cl)cc1Cl` [(159), 5-(2,6-dichloro-4-(3,3-dichloro-2-propenyloxy)phenoxy)pentyloxyacetaldehyde O-ethyloxime]: the mortality at 500 µg/mL was not below 80%.

In the case of `CCON=CCCCOc1c(Cl)cc(OCC=C(Cl)Cl)cc1Cl` [(28), 4-(2,6-dichloro-4-(3,3-dichloro-2-propenyloxy)phenoxy)butanal O-ethyloxime], the mortality at 500 µg/mL is not below 80%.

As to `CCON=Cc1ccc(OCCOc2c(Cl)cc(OCC=C(Cl)Cl)cc2Cl)cc1` [(287), 4-(2-(2,6-dichloro-4-(3,3-dichloro-2-propenyloxy)phenoxy)-ethoxy)benzaldehyde O-ethyloxime], the mortality at 500 µg/mL was not below 80%.

As to `CC(C)=NOCCCCCOc1c(Cl)cc(OCC=C(Cl)Cl)cc1Cl` [(560), acetone O-(5-(2,6-dichloro-4-(3,3-dichloro-2-propenyloxy)phenoxy)pentyl)oxime], the mortality at 500 µg/mL was not below 80%.

With `CCON=Cc1cccc(COc2c(Cl)cc(OCC=C(Cl)Cl)cc2Cl)c1` [(378), 3-((2,6-dichloro-4-(3,3-dichloro-2-propenyloxy)phenoxy)methyl)benzaldehyde O-ethyloxime], the mortality at 500 µg/mL is not below 80%.
